Literature values in patent US9662296B2, “Pharmaceutical composition comprising bicarbonate salt, and use thereof as a medicament in the treatment and/or prevention of urinary lithiases and related diseases” (ADVICENNE, priority 2010, dated 2017).

Conditions: high doses (30 to 40 grams per day)

For `O=C([O-])O.[Na+]` [sodium bicarbonate], the adverse manifestations is listed as “manifestations of metabolic alkalosis or digestive disorders, mainly diarrhoea”.
In the case of `O=C([O-])O.[K+]` [potassium bicarbonate], the adverse manifestations is listed as “manifestations of metabolic alkalosis or digestive disorders, mainly diarrhoea”.
